Test results: the NIST ThermoML archive (doi:10.1021/je7003929)

Experiment: xn = mol fraction of the nth substance listed
Conditions: Liquid, Vibrating tube method

c1ccc2sccc2c1 [benzo[b]thiophene] + CCCCCC
Conditions | mass density [kg/m3]
342.71 K, 11017 kPa, x2 = 0.9432 | 654.2
342.71 K, 12006 kPa, x2 = 0.9432 | 655.4
342.71 K, 13024 kPa, x2 = 0.9432 | 656.7
342.71 K, 14021 kPa, x2 = 0.9432 | 657.8
342.71 K, 15006 kPa, x2 = 0.9432 | 659
342.71 K, 16015 kPa, x2 = 0.9432 | 660.2
342.71 K, 17016 kPa, x2 = 0.9432 | 661.3
342.71 K, 18000 kPa, x2 = 0.9432 | 662.4
342.71 K, 19034 kPa, x2 = 0.9432 | 663.6
342.71 K, 20012 kPa, x2 = 0.9432 | 664.6
342.72 K, 1034 kPa, x2 = 0.7491 | 734.5
342.72 K, 2000 kPa, x2 = 0.7491 | 735.8
342.72 K, 3023 kPa, x2 = 0.7491 | 737
342.72 K, 4016 kPa, x2 = 0.7491 | 738.2
342.72 K, 5014 kPa, x2 = 0.7491 | 739.5
342.72 K, 6014 kPa, x2 = 0.7491 | 740.7
342.72 K, 7019 kPa, x2 = 0.7491 | 741.8
342.72 K, 8012 kPa, x2 = 0.7491 | 743
342.72 K, 9010 kPa, x2 = 0.7491 | 744.1
342.72 K, 10013 kPa, x2 = 0.7491 | 745.3
342.72 K, 11016 kPa, x2 = 0.7491 | 746.4
342.72 K, 12016 kPa, x2 = 0.7491 | 747.5
342.72 K, 13011 kPa, x2 = 0.7491 | 748.6
342.72 K, 14001 kPa, x2 = 0.7491 | 749.6
342.72 K, 15003 kPa, x2 = 0.7491 | 750.7
342.72 K, 16025 kPa, x2 = 0.7491 | 751.7
342.72 K, 17012 kPa, x2 = 0.7491 | 752.8
342.72 K, 18018 kPa, x2 = 0.7491 | 753.8
342.72 K, 19008 kPa, x2 = 0.7491 | 754.7
342.72 K, 20017 kPa, x2 = 0.7491 | 755.8
342.79 K, 1022 kPa, x2 = 0.4495 | 883.3
342.79 K, 2032 kPa, x2 = 0.4495 | 884.3
342.79 K, 3024 kPa, x2 = 0.4495 | 885.3
342.79 K, 4029 kPa, x2 = 0.4495 | 886.4
342.79 K, 5019 kPa, x2 = 0.4495 | 887.3
342.79 K, 6019 kPa, x2 = 0.4495 | 888.3
342.79 K, 7035 kPa, x2 = 0.4495 | 889.3
342.79 K, 8022 kPa, x2 = 0.4495 | 890.2
342.79 K, 9016 kPa, x2 = 0.4495 | 891.1
342.79 K, 10010 kPa, x2 = 0.4495 | 892
342.79 K, 11010 kPa, x2 = 0.4495 | 893
342.79 K, 12024 kPa, x2 = 0.4495 | 893.9
342.79 K, 13001 kPa, x2 = 0.4495 | 894.8
342.79 K, 14017 kPa, x2 = 0.4495 | 895.7
342.79 K, 15021 kPa, x2 = 0.4495 | 896.6
342.79 K, 16020 kPa, x2 = 0.4495 | 897.4
342.79 K, 17009 kPa, x2 = 0.4495 | 898.3
342.79 K, 18009 kPa, x2 = 0.4495 | 899.2
342.79 K, 19011 kPa, x2 = 0.4495 | 900
342.79 K, 20011 kPa, x2 = 0.4495 | 900.9
352.33 K, 1030 kPa, x2 = 0.2588 | 973.2
352.33 K, 2012 kPa, x2 = 0.2588 | 973.9
352.33 K, 3021 kPa, x2 = 0.2588 | 974.8
352.33 K, 4018 kPa, x2 = 0.2588 | 975.8
352.33 K, 5020 kPa, x2 = 0.2588 | 976.6
352.33 K, 6024 kPa, x2 = 0.2588 | 977.6
352.33 K, 7016 kPa, x2 = 0.2588 | 978.5
352.33 K, 8000 kPa, x2 = 0.2588 | 979.3
352.33 K, 9020 kPa, x2 = 0.2588 | 980.2
352.33 K, 10010 kPa, x2 = 0.2588 | 981
352.33 K, 11018 kPa, x2 = 0.2588 | 981.9
352.33 K, 12012 kPa, x2 = 0.2588 | 982.7
352.33 K, 13013 kPa, x2 = 0.2588 | 983.5
352.33 K, 14007 kPa, x2 = 0.2588 | 984.3
352.33 K, 15016 kPa, x2 = 0.2588 | 985.2
352.33 K, 16012 kPa, x2 = 0.2588 | 986
352.33 K, 17013 kPa, x2 = 0.2588 | 986.8
352.33 K, 18003 kPa, x2 = 0.2588 | 987.6
352.33 K, 19011 kPa, x2 = 0.2588 | 988.4
352.33 K, 20014 kPa, x2 = 0.2588 | 989.1
